# Source: paper PMC9017349, “Spiropyrimidinetriones: a Class of DNA Gyrase Inhibitors with Activity against Mycobacterium tuberculosis and without Cross-Resistance to Fluoroquinolones” (Antimicrobial Agents and Chemotherapy, 2022)
# What was measured:
# M. tuberculosis H37Rv [1] = assay: MIC against M. tuberculosis H37Rv in 7H9 medium with various supplements; format: cell-based, Mycobacterium tuberculosis; conditions: for MIC: Mycobacterium tuberculosis
# [2] = tested on: M. tuberculosis Erdman pFCA-LuxAB (Erdman Lux); conditions: BALB/c mice, 100 mg/kg p.o. daily, 12 days
# Mtb = format: in vivo; conditions: 100 mg/kg, day 21; limit 1.57 log10 CFU
# M. tuberculosis H37Rv [3] = assay: microbe, parasite or virus in culture; format: cell-based; conditions: Mycobacterium tuberculosis, read-out: MIC90, H37Rv
# [4] = tested on: iniB promoter reporter in M. tuberculosis H37Rv; format: cell-based, Mycobacterium tuberculosis
# H37Rv (RecA) = format: cell-based, Mycobacterium tuberculosis
# M. tuberculosis H37Rv [5] = assay: microbe, parasite or virus in culture; format: cell-based; conditions: for MBC relative to MIC / MBC: CARA; for MIC / MBC: Mycobacterium tuberculosis, 168 h; for MIC: H37Rv, 7 days, Middlebrook 7H9 with OADC and glycerol, read-out: MIC (dose-response); for MBC: H37RV, transfer to charcoal agar, additional 7 days
# [6] = tested on: recA promoter reporter in M. tuberculosis H37Rv; format: cell-based, Mycobacterium tuberculosis
# M. tuberculosis = conditions: 200 mg/kg, 14 days of dosing, published study; cited from earlier work
# M. tuberculosis ΔcydA = format: cell-based
# N. gonorrhoeae = format: cell-based
# [7] = H37RV, read-out: MIC, ADC/GLU/TW
# [8] = H37RV, read-out: MIC, DPPC/CAS/TX
# [9] = H37RV, read-out: MIC, DPPC/Chol/BSA/TX
# [10] = H37RV, read-out: MIC, GLU/BSA/TX
# [11] = H37RV, read-out: MIC, GLU/CAS/TX
SMILES,MIC (M. tuberculosis H37Rv [1]; [7]),MIC (M. tuberculosis H37Rv [1]; [8]),MIC (M. tuberculosis H37Rv [1]; [9]),MIC (M. tuberculosis H37Rv [1]; [10]),MIC (M. tuberculosis H37Rv [1]; [11]),MIC90 (M. tuberculosis H37Rv [3]),also measured
COc1ncnn1-c1noc2c(F)c3c(cc12)CC1(C(=O)NC(=O)NC1=O)[C@H]1[C@H](C)O[C@H](C)CN31 [Compound 16],2 µM,12 µM,9.4 µM,12 µM,9.4 µM,,
CNc1ncnn1-c1noc2c(F)c3c(cc12)CC1(C(=O)NC(=O)NC1=O)[C@H]1[C@H](C)O[C@H](C)CN31 [Compound 17],0.9 µM,6.2 µM,6.2 µM,9.4 µM,3.1 µM,,
C[C@@H]1CN2c3c(cc4c(-n5cncn5)noc4c3Cl)CC3(C(=O)NC(=O)NC3=O)[C@H]2[C@H](C)O1 [Compound 18],0.49 µM,3.1 µM,1.6 µM,1.6 µM,0.78 µM,,
C[C@@H]1CN2c3c(cc4c(-n5ncnc5N5CCOC[C@H]5C)noc4c3F)CC3(C(=O)NC(=O)NC3=O)[C@H]2[C@H](C)O1 [Compound 19],16 µM,> 50 µM,> 50 µM,> 50 µM,> 50 µM,,
C[C@@H]1CN2c3c(cc4c(C5=N[C@H](C)[C@@H](C)N5)noc4c3F)CC3(C(=O)NC(=O)NC3=O)[C@H]2[C@H](C)O1 [Compound 20],5.5 µM,6.2 µM,6.2 µM,4.7 µM,3.1 µM,,
C[C@@H]1CN2c3c(cc4c(C5=N[C@H]6COC[C@H]6N5)noc4c3F)CC3(C(=O)NC(=O)NC3=O)[C@H]2[C@H](C)O1 [Compound 21],3.4 µM,9.4 µM,9.4 µM,6.2 µM,6.2 µM,,
C[C@@H]1CN2c3c(cc4c(N5CCN(C)C5=O)noc4c3F)CC3(C(=O)NC(=O)NC3=O)[C@H]2[C@H](C)O1 [Compound 23],4.3 µM,37 µM,12 µM,19 µM,6.2 µM,,
CC(=O)NCC1CN(c2cc3c(c(F)c2F)N2C[C@H](C)O[C@H](C)[C@H]2C2(C3)C(=O)NC(=O)NC2=O)C(=O)O1 (stereo partly shown) [Compound 24],> 50 µM,> 50 µM,> 50 µM,> 50 µM,> 50 µM,,activity in the M. tuberculosis MIC assays (M. tuberculosis H37Rv [1]; any of the MIC media): did not show activity at the highest concentration tested
"CC[C@@H](CO)NCCN[C@@H](CC)CO [Ethambutol, ethambutol, reference compound]",,,,,,,"CFU decline in lung burdens relative to the untreated controls [2]: 2.6 log10 CFU; n, number of mice showing viable bacteria above the lower limit of detection/total number of animals tested (Mtb): 5/5"
"NNC(=O)c1ccncc1 [Isoniazid, isoniazid]",,,,,,3.95 µM,bioluminescence response in PiniB-LUX assay [4]: strong signal; PrecA-LUX MIC (H37Rv (RecA)): ~ 7 μM; MBC relative to MIC (M. tuberculosis H37Rv [5]): less than 4 fold; MIC (M. tuberculosis H37Rv [5]): 4.61 µM; MBC (M. tuberculosis H37Rv [5]): 3.9 µM; bioluminescence response in PrecA-LUX assay ([6]; over 7 days): did not elicit significant luminescence
C[C@H]1COc2c(N3CCN(C)CC3)c(F)cc3c(=O)c(C(=O)O)cn1c23 [Levofloxacin],,,,,,0.49 µM,
"CC(=O)NC[C@H]1CN(c2ccc(N3CCOCC3)c(F)c2)C(=O)O1 [Linezolid, linezolid]",,,,,,,MBC relative to MIC (M. tuberculosis H37Rv [5]): greater than 4 fold; MIC (M. tuberculosis H37Rv [5]): 1.51 µM; MBC (M. tuberculosis H37Rv [5]): 7.8 µM
"COc1c(N2C[C@@H]3CCCN[C@@H]3C2)c(F)cc2c(=O)c(C(=O)O)cn(C3CC3)c12 [Moxifloxacin, moxifloxacin]",,,,,,0.24 µM,"MIC (M. tuberculosis H37Rv [1]; H37Rv, 7H9 medium with DPPC/Casitone/tyloxapol, read-out: MIC, DPPC/CAS/TX): 0.2 µM; MIC (M. tuberculosis H37Rv [1]; H37Rv, 7H9 medium with albumin-dextrose catalase/glucose/Tween, read-out: MIC, ADC/GLU/TW): 0.17 µM; MIC (M. tuberculosis H37Rv [1]; H37Rv, 7H9 medium with glucose/BSA/tyloxapol, read-out: MIC, GLU/BSA/TX): 0.3 µM; PrecA-LUX MIC (H37Rv (RecA)): ~ 0.19 μM; CFU reduction (M. tuberculosis): 3.3 log10 CFU; MIC (M. tuberculosis H37Rv [5]): 0.38 µM; MBC (M. tuberculosis H37Rv [5]): 0.78 µM; n, number of mice showing viable bacteria above the lower limit of detection/total number of animals tested (Mtb): 3/6; PrecA-LUX signal higher than for 22 ([6]; at 0.5× MIC): ~6 fold"
"CO[C@H]1/C=C/O[C@@]2(C)Oc3c(C)c(O)c4c(O)c(c(/C=N/N5CCN(C)CC5)c(O)c4c3C2=O)NC(=O)/C(C)=C\C=C\[C@H](C)[C@H](O)[C@@H](C)[C@@H](O)[C@@H](C)[C@H](OC(C)=O)[C@@H]1C [Rif, rifampicin]",,,,,,0.002 µM,"MIC90, ΔcydA (M. tuberculosis ΔcydA): 0.0046 µM"
CC(C)=CCC/C(C)=C/CNCCNC1C2CC3CC(C2)CC1C3 (stereo not shown) [SQ109],,,,,,0.49 µM,
"C[C@@H]1CN2c3c(cc4c(N5C(=O)OC[C@@H]5C)noc4c3F)CC3(C(=O)NC(=O)NC3=O)[C@H]2[C@H](C)O1 [Zoliflodacin, zoliflodacin, reference compound]",6.4 µM,19 µM,19 µM,12 µM,19 µM,,MIC against N. gonorrhoeae lower than that for 22 (N. gonorrhoeae): 8 fold
